Results reported in US20120276186A1, “SUSTAINED RELEASE LATANOPROST IMPLANT” (priority 2011, published 2012).

What was measured:
solubility parameter = format: physicochemical
Description: The solubility parameter for a substance is a numerical value which indicates the relative solvency behavior of that substance. The concept is discussed and defined in US 2008/0145403.
Latanoprost is very difficult to incorporate into biodegradable polymer matrices, because it is an oil. It has now been discovered, that this problem can be overcome by using a combination of high molecular weight PLA and PLGA polymers and fabricating the implant by melt extrusion or casting in an appropriate solvent. The oily drug substance (DS), i.e. latanoprost, helps plasticize the polymer and allows the production of a homogeneous polymer film. […] It has been determined that dichloromethane is a good solvent for PLA and PLGA, which have solubility parameters of about 21.1 MPa^0.5 and about 22.1 MPa^0.5, respectively. Thus, a solvent having a solubility parameter of from 17.1 to 26.1 MPa^0.5, preferably from 17.6 to 25.6, e.g. 21.1 or 22.1 MPa^0.5 may be used in the practice of this invention. Such solvents may include dichloromethane, isopropanol, ethanol, acetonitrile and octanol.

[1] = cited from earlier work

Row | Compound | solubility parameter (solubility parameter) | solubility in organic solvents ([1]; acetone, ethanol, ethyl acetate, isopropanol, methanol and octanol) | solubility in acetonitrile ([1]; acetonitrile) | solubility in water ([1]; water)
1 | CC(C)OC(=O)CCC/C=C\C[C@@H]1[C@@H](CC[C@@H](O)CCc2ccccc2)[C@H](O)C[C@@H]1O [Latanoprost] | 22-24 MPa^0.5 | freely soluble | very soluble | practically insoluble
2 | ClCCl [dichloromethane] | 19.8 MPa^0.5 | – | – | –
3 | PEG 3350 | about 20 MPa^0.5 | – | – | –
4 | poly(D,L-lactide) [PLA] | about 21.1 MPa^0.5 | – | – | –
5 | poly(D,L-lactide-co-glycolide) [PLGA] | about 22.1 MPa^0.5 | – | – | –
